Measurements reported in ChEMBL document CHEMBL4390649, “Fine-tuning the neuroprotective and blood-brain barrier permeability profile of multi-target agents designed to prevent progressive mitochondrial dysfunction” (Eur J Med Chem, 2019).
Calls of active or inactive are those of the source. No cut-off for these calls is given here.

Test system: not listed separately
Assay: Electrochemical behavior of the compound assessed as redox potential corrected toward saturated Ag/AgCl reference electrode by cyclic voltammetry
Conditions: not given

SMILES | Activity [mV]
O=C(NCCCCCCCCCC[P+](c1ccccc1)(c1ccccc1)c1ccccc1)c1ccc(O)c(O)c1.[Br-] | 210
CS(=O)(=O)[O-].O=C(CCc1ccc(O)c(O)c1)NCCCCCCCCCC[P+](c1ccccc1)(c1ccccc1)c1ccccc1 | 122

Test system: not listed separately
Assay: Cytotoxicity against human SH-SY5Y cells assessed as cell metabolic activity at 10 uM incubated for 24 hrs by MTT assay relative to control
Format: ADME, cell-based
Conditions: read-out: Activity

SMILES | viability at 24 h, 10 µM [%]
O=C(NCCCCCCCCCC[P+](c1ccccc1)(c1ccccc1)c1ccccc1)c1ccc(O)c(O)c1.[Br-] | 97.8
CS(=O)(=O)[O-].O=C(CCc1ccc(O)c(O)c1)NCCCCCCCCCC[P+](c1ccccc1)(c1ccccc1)c1ccccc1 | 96

Test system: not listed separately
Assay: Antioxidant activity assessed as DPPH radical scavenging activity measured after 45 mins by UV-Visible spectrophotometric based assay
Format: functional
Conditions: not given

SMILES | IC50 [µM]
O=C(NCCCCCCCCCC[P+](c1ccccc1)(c1ccccc1)c1ccccc1)c1ccc(O)c(O)c1.[Br-] | 31
CS(=O)(=O)[O-].O=C(CCc1ccc(O)c(O)c1)NCCCCCCCCCC[P+](c1ccccc1)(c1ccccc1)c1ccccc1 | 59.1

Test system: SH-SY5Y
Assay: Neuroprotective activity against TBHP-induced oxidative damage in human SH-SY5Y cells assessed as increase in cell viability at 50 uM pretreated for 24 hrs followed by TBHP stimulation measured after 4 hrs by MTT assay relative to control
Format: functional
Conditions: not given

SMILES | Activity
O=C(NCCCCCCCCCC[P+](c1ccccc1)(c1ccccc1)c1ccccc1)c1ccc(O)c(O)c1.[Br-] | inactive
CS(=O)(=O)[O-].O=C(CCc1ccc(O)c(O)c1)NCCCCCCCCCC[P+](c1ccccc1)(c1ccccc1)c1ccccc1 | inactive

Test system: HepG2
Assay: Cytotoxicity against human HepG2 cells assessed as reduction in cell viability incubated for 48 hrs by resazurin assay relative to control
Format: cell-based
Conditions: hepg2, 48 h

SMILES | Activity
O=C(NCCCCCCCCCC[P+](c1ccccc1)(c1ccccc1)c1ccccc1)c1ccc(O)c(O)c1.[Br-] | Dose-dependent effect
CS(=O)(=O)[O-].O=C(CCc1ccc(O)c(O)c1)NCCCCCCCCCC[P+](c1ccccc1)(c1ccccc1)c1ccccc1 | Dose-dependent effect

Test system: not listed separately
Assay: Electrochemical behavior of the compound assessed as redox potential corrected toward saturated Ag/AgCl reference electrode by differential pulse voltammetry
Conditions: not given

SMILES | Activity [mV]
O=C(NCCCCCCCCCC[P+](c1ccccc1)(c1ccccc1)c1ccccc1)c1ccc(O)c(O)c1.[Br-] | 210
CS(=O)(=O)[O-].O=C(CCc1ccc(O)c(O)c1)NCCCCCCCCCC[P+](c1ccccc1)(c1ccccc1)c1ccccc1 | 122

Test system: SH-SY5Y
Assay: Neuroprotective activity against TBHP-induced oxidative damage in human SH-SY5Y cells assessed as increase in cell viability at 10 uM pretreated for 24 hrs followed by TBHP stimulation measured after 4 hrs by MTT assay relative to control
Format: functional, cell-based
Conditions: not given

SMILES | Activity
O=C(NCCCCCCCCCC[P+](c1ccccc1)(c1ccccc1)c1ccccc1)c1ccc(O)c(O)c1.[Br-] | inactive
CS(=O)(=O)[O-].O=C(CCc1ccc(O)c(O)c1)NCCCCCCCCCC[P+](c1ccccc1)(c1ccccc1)c1ccccc1 | inactive

Test system: not listed separately
Assay: Antioxidant activity assessed as ABTS radical scavenging activity measured after 15 mins by UV-Visible spectrophotometric based assay
Format: functional
Conditions: not given

SMILES | IC50 [µM]
O=C(NCCCCCCCCCC[P+](c1ccccc1)(c1ccccc1)c1ccccc1)c1ccc(O)c(O)c1.[Br-] | 19.4
CS(=O)(=O)[O-].O=C(CCc1ccc(O)c(O)c1)NCCCCCCCCCC[P+](c1ccccc1)(c1ccccc1)c1ccccc1 | 30.1

Test system: not listed separately
Assay: Metal chelating activity assessed as compound-Fe2+ complex formation at 100 uM incubated for 10 mins by ferrozine spectrophotometric assay
Conditions: not given

SMILES | Activity [%]
O=C(NCCCCCCCCCC[P+](c1ccccc1)(c1ccccc1)c1ccccc1)c1ccc(O)c(O)c1.[Br-] | > 80
CS(=O)(=O)[O-].O=C(CCc1ccc(O)c(O)c1)NCCCCCCCCCC[P+](c1ccccc1)(c1ccccc1)c1ccccc1 | > 80

Test system: not listed separately
Assay: Cytotoxicity against human SH-SY5Y cells assessed as cell metabolic activity at 50 uM incubated for 24 hrs by MTT assay relative to control
Format: ADME, cell-based
Conditions: read-out: Activity

SMILES | viability at 24 h, 50 µM [%]
O=C(NCCCCCCCCCC[P+](c1ccccc1)(c1ccccc1)c1ccccc1)c1ccc(O)c(O)c1.[Br-] | 31.1
CS(=O)(=O)[O-].O=C(CCc1ccc(O)c(O)c1)NCCCCCCCCCC[P+](c1ccccc1)(c1ccccc1)c1ccccc1 | 72.5

Test system: SH-SY5Y
Assay: Neuroprotective activity against 6-OHDA-induced toxicity in human SH-SY5Y cells assessed as reduction in cell damage at 10 to 50 uM pretreated for 24 hrs followed by 6-OHDA challenge and measured after 24 hrs by MTT assay relative to control
Format: functional
Conditions: not given

SMILES | Activity
O=C(NCCCCCCCCCC[P+](c1ccccc1)(c1ccccc1)c1ccccc1)c1ccc(O)c(O)c1.[Br-] | inactive

Test system: SH-SY5Y
Assay: Cytotoxicity against human SH-SY5Y cells assessed as reduction in cell viability incubated for 24 hrs by MTT assay relative to control
Format: cell-based
Conditions: not given

SMILES | Activity
O=C(NCCCCCCCCCC[P+](c1ccccc1)(c1ccccc1)c1ccccc1)c1ccc(O)c(O)c1.[Br-] | Dose-dependent effect
CS(=O)(=O)[O-].O=C(CCc1ccc(O)c(O)c1)NCCCCCCCCCC[P+](c1ccccc1)(c1ccccc1)c1ccccc1 | Dose-dependent effect

Test system: not listed separately
Assay: Cytotoxicity against human HepG2 cells assessed as cell metabolic activity at 10 uM incubated for 48 hrs by resazurin assay relative to control
Format: ADME, cell-based
Conditions: read-out: Activity

SMILES | viability at 48 h, 10 µM [%]
O=C(NCCCCCCCCCC[P+](c1ccccc1)(c1ccccc1)c1ccccc1)c1ccc(O)c(O)c1.[Br-] | 44.6
CS(=O)(=O)[O-].O=C(CCc1ccc(O)c(O)c1)NCCCCCCCCCC[P+](c1ccccc1)(c1ccccc1)c1ccccc1 | 41.8

Test system: SH-SY5Y
Assay: Cytotoxicity against human SH-SY5Y cells assessed as reduction in cell viability at 10 uM incubated for 24 hrs by MTT assay relative to control
Format: cell-based
Conditions: not given

SMILES | Activity [%]
O=C(NCCCCCCCCCC[P+](c1ccccc1)(c1ccccc1)c1ccccc1)c1ccc(O)c(O)c1.[Br-] | < 45
CS(=O)(=O)[O-].O=C(CCc1ccc(O)c(O)c1)NCCCCCCCCCC[P+](c1ccccc1)(c1ccccc1)c1ccccc1 | < 45

Test system: SH-SY5Y
Assay: Neuroprotective activity against H2O2-induced oxidative damage in human SH-SY5Y cells assessed as reduction in cell damage at 10 uM pretreated for 24 hrs followed by H2O2 challenge measured after 30 mins by MTT assay relative to control
Format: functional
Conditions: not given

SMILES | Activity
O=C(NCCCCCCCCCC[P+](c1ccccc1)(c1ccccc1)c1ccccc1)c1ccc(O)c(O)c1.[Br-] | inactive

Test system: SH-SY5Y
Assay: Induction of ROS generation in human SH-SY5Y cells at 50 uM incubated for 24 hrs by DCFH-DA probe based fluorescence assay relative to control
Format: functional
Conditions: not given

SMILES | Activity [%]
O=C(NCCCCCCCCCC[P+](c1ccccc1)(c1ccccc1)c1ccccc1)c1ccc(O)c(O)c1.[Br-] | 68.4
CS(=O)(=O)[O-].O=C(CCc1ccc(O)c(O)c1)NCCCCCCCCCC[P+](c1ccccc1)(c1ccccc1)c1ccccc1 | 96.2

Test system: not listed separately
Assay: Cytotoxicity against human HepG2 cells assessed as cell metabolic activity at 50 uM incubated for 48 hrs by resazurin assay relative to control
Format: ADME, cell-based
Conditions: read-out: Activity

SMILES | viability at 48 h, 50 µM [%]
O=C(NCCCCCCCCCC[P+](c1ccccc1)(c1ccccc1)c1ccccc1)c1ccc(O)c(O)c1.[Br-] | 2.4
CS(=O)(=O)[O-].O=C(CCc1ccc(O)c(O)c1)NCCCCCCCCCC[P+](c1ccccc1)(c1ccccc1)c1ccccc1 | 8.22
